Columns and labels:
A. nosocomialis 1461911 [1] = assay: Checkerboard colistin sulphate (CS) plus teicoplanin (TP), MIC/FIC and MBC/FBC; type: cell-based, Acinetobacter nosocomialis; conditions: agent alone, CAMHB, 5*10^5 CFU/ml
Procedure: (§1) Checkerboard analysis to determine minimal inhibitory concentration (MIC)/fractional inhibitory concentration (FIC) and minimal […] (MBC)/fractional […] (FBC) values of colistin sulphate (CS) plus teicoplanin (TP) for 6 Gram-negative strains with a bacterial load 5(1-10)*10^5 CFU/ml in a cation-adjusted Mueller-Hinton broth (CAMHB). • a. Antimicrobial stock solutions were prepared using sterile distilled water • b. CS was added along the ordinate; TP was added along the abscissa to 96 well, flat bottom, polystyrene panels with no treatment. Colistin alone was tested in triplicates. • c. Serial 2-fold dilutions starting with 640 μg/ml CS and 640 μg/ml TP were made; 15 μl volume of the serial dilutions were added for each agent to the appropriate wells; final volume at 30 μl • d. For each agent tested alone an additional 15 μl media was added to the well. 30 μl were added in control wells where none of the agent was tested. The negative control well contains 150 μl media without any additions • e. From an overnight bacterial culture in tryptic soy broth, 100 μL was added to 10 mL of fresh tryptic soy broth. This was then incubated at 37° C. for 1.5 hour at 180 rpm. • f. Bacteria in 120 μl CAMHB were added to each well (end concentration 5(1-10)*10^5 CFU/ml) • g. Plates were incubated at 37° C. in an ambient air incubator for 24 h • h. Turbidity at OD600 is determined with a plate photometer • i. By using a one-time inoculator 3 μl from each well of the 96-well plate were transferred to three blood agar plates. The plates were incubated over night at 37° C. in an ambient air incubator • j. MIC values are defined as lowest concentration which restricts bacterial growth to OD600 ≤0.1 • k. MBC values were determined by visual reading the lowest concentration which inhibits 99.9% of the growth of bacteria in the wells • l. Determination of the fractional inhibitory concentration (FIC) index and fractional bactericidal concentration (FBC) index and characterization of antimicrobial interactions was assessed […]
(§2) FIC calculation was carried out as: (MIC of drug A, tested in combination)/(MIC of drug A, tested alone)+(MIC of drug B, tested in combination)/(MIC of drug B, tested alone). FBC calculation was carried out just as well […]
(§3) Interactive categories were calculated from checkerboard analysis using MIC results from testing each agent alone and MIC results from the combination wells adjacent to the wells with growth in them […]
b. Indifference; FIC/FBC>0.5 to<4.0 c. Antagonism; FIC/FBC≥4.0 b. A. nosocomialis 1461911 (IHMA), colistin resistant

[2] = in vivo; cited from earlier work
A. junii 1397597 [3] = assay: Checkerboard colistin sulphate (CS) plus teicoplanin (TP), MIC/FIC and MBC/FBC; type: cell-based, Acinetobacter junii; conditions: agent alone, CAMHB, 5*10^5 CFU/ml
Procedure: as §1, with “MIC values are defined as lowest concentration which restricts bacterial growth to OD600 ≤0.1 • k. MBC values were determined by visual reading the lowest concentration which inhibits 99.9% of the growth of bacteria in the wells • l.” left out
as §3

S. maltophilia 1221783 [4] = assay: as above; type: cell-based, Stenotrophomonas maltophilia; conditions: agent alone, CAMHB, 5*10^5 CFU/ml, 24 h
Procedure: as §1, with “MIC values are defined as lowest concentration which restricts bacterial growth to OD600 ≤0.1 • k. MBC values were determined by visual reading the lowest concentration which inhibits 99.9% of the growth of bacteria in the wells • l.” left out
as §3

A. haemolyticus 1655843 [5] = assay: as above; type: cell-based, Acinetobacter haemolyticus; conditions: agent alone, CAMHB, 5*10^5 CFU/ml
Procedure: as §1, §2, §3
b. Indifference; FIC/FBC>0.5 to<4.0 c. Antagonism; FIC/FBC≥4.0 c. A. haemolyticus 1655843 (IHMA), colistin resistant

A. guillouiae 1285286 [6] = assay: as above; type: cell-based, Acinetobacter guillouiae; conditions: agent alone, CAMHB, 5*10^5 CFU/ml
Procedure: as §1, §2, §3
b. Indifference; FIC/FBC>0.5 to<4.0 c. Antagonism; FIC/FBC≥4.0 d. A. guillouiae 1285286 (IHMA), colistin resistant

S. maltophilia 1237289 [7] = assay: as above; type: cell-based, Stenotrophomonas maltophilia; conditions: S. maltophilia 1237289, agent alone, CAMHB, 5*10^5 CFU/ml
Procedure: as §1, with “Plates were incubated at 37° C. in an ambient air incubator for 24 h • h.” left out
as §2, §3
b. Indifference; FIC/FBC>0.5 to<4.0 c. Antagonism; FIC/FBC≥4.0 f. S. maltophilia 1237289 (IHMA), colistin resistant

[8] = tested on: Methicillin-resistant Staphylococcus aureus (MRSA); assay: Three-step decolonization protocol for MRSA in paediatric patients with cystic fibrosis; type: in vivo; conditions: patients are to receive a further five-day intravenous treatment to increase the success rate
Procedure: Methicillin-resistant Staphylococcus aureus (MRSA) is a bacterial pathogen in patients with cystic fibrosis (CF) although its clinical effects can be variable. In a three-step decolonization protocol for MRSA 15 paediatric patients are treated during a long follow-up period where 50% are successfully decolonized following one five-day course of i.v. Colistin and fusidic acid. To increase the success rate the patients are to receive a five-day intravenous teicoplanin treatment to clear MRSA colonization to 90-100%.

A. nosocomialis 1461911 [9] = assay: Checkerboard fusidic acid (FD) and colistin sulfate (CS), MIC/FIC and MBC/FBC; type: cell-based, Acinetobacter nosocomialis; conditions: A. nosocomialis 1461911, agent alone, CAMHB, 1*10^6 CFU/ml
Procedure: (§4) Checkerboard assays between fusidic acid (FD) and colistin sulfate (CS) with a bacterial load 5(1-10)*10^5 CFU/ml in cationic adapted Mueller Hinton broth (CAMHB). • a. Antimicrobial stock solutions were prepared using sterile distilled water; • b. CS was added along the ordinate; FD was added along the abscissa to 96 well, flat bottom, polystyrene panels with no treatment. Colistin alone was tested in triplicates; • c. Serial 2-fold dilutions starting with 640 […] CS and 640 μg/ml FD were made; 15 μl volume of the serial dilutions were added for each agent to the appropriate wells—final volume at 30 μl; • d. For each agent tested alone an additional 15 μl media was added to the well. 30 μl were added in control wells where none of the agent was tested. The negative control well contains 150 μl media without any additions; • e. From an overnight bacterial culture in tryptic soy broth, 100 μL was added to 10 mL of fresh tryptic soy broth. This was then incubated at 37° C. for 1.5 hour at 180 rpm; • f. Bacteria in 120 μl CAMHB were added to each well (end concentration 5(1-10)*10^5 CFU/ml); • g. Plates were incubated at 37° C. in an ambient air incubator for 24 h • h. Turbidity at OD600 is determined with a plate photometer • i. By using a one-time inoculator 3 μl from each well of the 96-well plate were transferred to three blood agar plates. The plates were incubated over night at 37° C. in an ambient air incubator; • j. MIC values are defined as lowest concentration which restricts bacterial growth to OD600≤0.1; • k. MBC values were determined by visual reading the lowest concentration which inhibits 99.9% of the growth of bacteria in the wells; • l. Determination of the fractional inhibitory concentration (FIC) index and fractional bactericidal concentration (FBC) index and characterization of antimicrobial interactions was assessed;
(§5) FIC calculation was carried out as: (MIC of drug A, tested in combination)/(MIC of drug A, tested alone)+(MIC of drug B, tested in combination)/(MIC of drug B, tested alone). FBC calculation was carried out just as well;
(§6) Interactive categories were calculated from checkerboard analysis using MIC results from testing each agent alone and MIC results from the combination wells adjacent to the wells with growth in them.
(§7) Determination of the fractional inhibitory concentration (FIC) index and fractional bactericidal concentration (FBC) index and characterization of antimicrobial interactions was assessed:
(§8) (ii) Indifference; FIC/FBC>0.5 to <4.0
(§9) (iii) Antagonism; FIC/FBC≥4.0
b. Acinetobacter nosocomialis 1461911 (IHMA), colistin resistant (3xCS 4/8)

A. junii 1397597 [10] = assay: as above; type: cell-based, Acinetobacter junii; conditions: agent alone, CAMHB, 1*10^6 CFU/ml
Procedure: as §4, §5, §6, §7, §8, §9
a. Acinetobacter junii 1391597 (IHMA), colistin resistant (CS 2/2-2/8)

A. guillouiae 1285286 [11] = assay: as above; type: cell-based, Acinetobacter guillouiae; conditions: agent alone, CAMHB, 1*10^6 CFU/ml
Procedure: as §4, §5, §6, §7, §8, §9
d. Acinetobacter guillouiae 1285286 (IHMA), colistin resistant (2xCS 2/4)

A. haemolyticus 1655843 [12] = assay: as above; type: cell-based, Acinetobacter haemolyticus; conditions: agent alone, CAMHB, 1*10^6 CFU/ml
Procedure: as §4, §5, §6, §7, §8, §9
c. Acinetobacter haemolyticus 1655843 (IHMA), colistin resistant (3xCS>16/>16-64/>64)

S. maltophilia 1237289 [13] = assay: Checkerboard fusidic acid (FD) and colistin sulfate (CS), MIC/FIC; type: cell-based, Stenotrophomonas maltophilia; conditions: S. maltophilia 1237289, agent alone, CAMHB, 1*10^6 CFU/ml
Procedure: as §4, §5, §6, §7, §8, §9
e. Stenotrophomonas maltophilia 1237289 (IHMA), colistin resistant (CS 2/4-4/8-8/8)

S. maltophilia 1221783 [14] = assay: as above; type: cell-based, Stenotrophomonas maltophilia; conditions: agent alone, CAMHB, 1*10^6 CFU/ml, 24 h
Procedure: Checkerboard assays between fusidic acid (FD) and colistin sulfate (CS) with a bacterial load 5(1-10)*10^5 CFU/ml in cationic adapted Mueller Hinton broth (CAMHB). • a. Antimicrobial stock solutions were prepared using sterile distilled water; • b. CS was added along the ordinate; FD was added along the abscissa to 96 well, flat bottom, polystyrene panels with no treatment. Colistin alone was tested in triplicates; • c. Serial 2-fold dilutions starting with 640 […] CS and 640 μg/ml FD were made; 15 μl volume of the serial dilutions were added for each agent to the appropriate wells—final volume at 30 μl; • d. For each agent tested alone an additional 15 μl media was added to the well. 30 μl were added in control wells where none of the agent was tested. […] Turbidity at OD600 is determined with a plate photometer • i. […] Determination of the fractional inhibitory concentration (FIC) index and fractional bactericidal concentration (FBC) index and characterization of antimicrobial interactions was assessed; […]
as §6
Determination of the fractional inhibitory concentration (FIC) index and fractional bactericidal concentration (FBC) index and characterization of antimicrobial interactions was assessed: […]

[15] = after 48 h growth (values in brackets)

In the case of teicoplanin [TP], the MIC (A. nosocomialis 1461911 [1]; A. nosocomialis 1461911, 24 h) is listed as greater than 64 µg/mL, the MBC (A. nosocomialis 1461911 [1]; A. nosocomialis) is listed as greater than 64 µg/mL and the “terminal half-life, mean (±SD)” value [2] is listed as 157 (±93) h. The “terminal half-life, median (range)” value [2] was 168 (111-278) h, the MIC (A. junii 1397597 [3]; A. junii 1397597, 24 h) was greater than 64 µg/mL and the MBC (A. junii 1397597 [3]; A. junii) was greater than 64 µg/mL. The MIC (S. maltophilia 1221783 [4]) was greater than 64 µg/mL, the MIC (A. haemolyticus 1655843 [5]; A. haemolyticus 1655843, 24 h) was greater than 64 µg/mL and the MBC (A. haemolyticus 1655843 [5]; A. haemolyticus) was greater than 64 µg/mL. For the same compound, the MIC (A. guillouiae 1285286 [6]; A. guillouiae 1285286, 24 h) was greater than 64 µg/mL, the MBC (A. guillouiae 1285286 [6]; A. guillouiae) was greater than 64 µg/mL and the MIC (S. maltophilia 1237289 [7]; 24 h) was greater than 64 µg/mL. The MIC (S. maltophilia 1237289 [7]; [15]) was “(>64) mg/l” and the “clear MRSA colonization to” value [8] was 90-100%.

In the case of `CC(=O)O[C@H]1C[C@@]2(C)[C@@H](C[C@@H](O)[C@H]3[C@@]4(C)CC[C@@H](O)[C@@H](C)[C@@H]4CC[C@@]32C)/C1=C(\CCC=C(C)C)C(=O)O` [FD, fusidic acid], the MIC (A. nosocomialis 1461911 [9]; 24 h) is reported as greater than 64 mg/1l, the MBC (A. nosocomialis 1461911 [9]; Acinetobacter nosocomialis) is reported as greater than 64 µg/mL and the MIC (A. junii 1397597 [10]; A. junii 1397597, 24 h) is reported as 32 mg/1l. The MBC (A. junii 1397597 [10]; Acinetobacter junii, 1397597, A. junii 1397597) was 64 µg/mL, the MIC (A. guillouiae 1285286 [11]; A. guillouiae 1285286, 24 h) was 16 mg/1l and the MBC (A. guillouiae 1285286 [11]; Acinetobacter guillouiae, 1285286, A. guillouiae, read-out: MBC) was greater than 64 µg/mL. It also gave an MIC (A. haemolyticus 1655843 [12]; A. haemolyticus 1655843, 24 h) of 32 mg/1l, an MBC (A. haemolyticus 1655843 [12]; Acinetobacter haemolyticus, 1655843, A. haemolyticus 1655843) of 64 µg/mL and an MIC (S. maltophilia 1237289 [13]; 24 h) greater than 64 mg/1l. The MIC (S. maltophilia 1237289 [13]; [15]) was “(>64) mg/1l” and the MIC (S. maltophilia 1221783 [14]) was 64 mg/1l.
